Like-named read-outs stand apart in the source and are kept apart here.
Columns and labels:
Type in all cases: cell-based
HBsAg = test: PHH HBV natural infection assay, HBsAg (alphalisa)
Description: (§1) Detailed procedures regarding primary human hepatocyte (PHH) HBV natural infection assay are described as below. One tube of frozen PHH (10 million cells) is thawed in 37° C. water bath and then transferred to 20 mL of PHH thawing medium (Sigma, InVitroGRO HT Medium, Cat. S03319) with gently mixing. The cells were then centrifuged at […] for 5 min, the supernatant was discarded and the tube was refilled with 25 mL of PHH plating medium (Sigma, InVitroGRO CP Medium, Cat. S03317). The tube was shaken very gently to re-suspend all cells, and then 50 µl of cells were transferred to each well 384-well collagen I coated plate with appropriate liquid handling equipment, e.g. Integra VIAFLO384 or Agilent Bravo. The cells were then cultured for 24 hours in a cell incubator. For HBV infection, after PHH attachment on the culture plate, the plating medium was removed and replenished with PHH culture medium containing HBV virus. The PHH culture medium was prepared with Dulbecco’s Modified Eagle Medium (DMEM)/F12 (1: 1 in volume ratio) containing 10% fetal bovine serum (Gibco, Cat. 10099141), 5 ng/mL human epidermal growth factor (Gibco, Cat.PHG0311L), 20 ng/mL dexamethasone (Sigma, Cat.D4902-100mg), 250 ng/mL human recombinant insulin (Gibco, Cat.41400045) and 100 U/mL penicillin. HBV virus at 200 genome equivalent (GE) per cell with 4% PEG8000 (Sigma, Cat.P1458) containing culture medium were added to the PHH culture medium for infection. The cells were then cultured for 24 hours in cell incubator. Then the cell culture supernatant was removed. The HBV-infected PHH were cultured with sandwich culture method with PHH culture medium containing 1% DMSO and 0.25 mg/mL matrix gel for 72 hours. The supernatant was then refreshed with PHH culture medium containing different concentrations of testing compounds for two times with 72-hour interval. At the end of treatment, the supernatant was collected for viral markers measurements, including HBsAg, HBeAg, HBV DNA and cytotoxicity. HBsAg and HBeAg were detected using alphalisa method using their specific antibodies. For HBV DNA detection, HBV DNA Quantitative Fluorescence Diagnostic Kit (Sansure Biotech Inc.) was used following the manufacture’s protocol. Cytotoxicity was determined using Cell Counting Kit-8 (CCK8, Dojindo Molecular Technologies, Inc.).
(§2) The compounds of the present invention were tested for their capacity to inhibit HBsAg and HBeAg as described herein.

HBeAg = test: PHH HBV natural infection assay, HBeAg (alphalisa)
Description: as §1, §2

[1] = Cytotoxicity in PHH natural infection assay (Cell Counting Kit-8); conditions: human; HBV-infected PHH, CCK8, compound refreshed two times with 72-hour interval
Description: as §1

[2] = Hepatitis B virus, 72 h, read-out: HBsAg IC50, HBV-infected PHH, culture supernatant, compound refreshed two times with 72-hour interval, alphalisa
[3] = Hepatitis B virus, 72 h, read-out: HBeAg IC50, HBV-infected PHH, culture supernatant, compound refreshed two times with 72-hour interval, alphalisa

O=C(NC1CC2(C1)CC(c1nc3cc(Cl)ccc3s1)C2)c1ccnc(N2CCOCC2)c1 (stereo not drawn) [Example 52, N-[6-(5-chloro-1,3-benzothiazol-2-yl)spiro[3.3]heptan-2-yl]-2-morpholino-pyridine-4-carboxamide]
IC50 (HBsAg; [2]): 2.59 µM
IC50 (HBeAg; [3]): 2.79 µM
CC50 at 144 h [1]: > 10 µM

CN(C)c1cc(C(=O)NC2CC3(C2)CC(c2nc4cc(Cl)ccc4s2)C3)ccn1 (stereo not drawn) [Example 46, N-[6-(5-chloro-1,3-benzothiazol-2-yl)spiro[3.3]heptan-2-yl]-2-(dimethylamino)pyridine-4-carboxamide]
IC50 (HBsAg; [2]): 4.2 µM
IC50 (HBeAg; [3]): 3.35 µM
CC50 at 144 h [1]: > 10 µM

CCS(=O)(=O)c1cc(C(=O)NC2CC3(C2)CC(c2nc4cc(Cl)ccc4s2)C3)ccn1 (stereo not drawn) [Example 9, N-[6-(5-chloro-1,3-benzothiazol-2-yl)spiro[3.3]heptan-2-yl]-2-ethylsulfonyl-pyridine-4-carboxamide]
IC50 (HBsAg; [2]): 1.35 µM
IC50 (HBeAg; [3]): 1.21 µM
CC50 at 144 h [1]: 13.4 µM

O=C(NC1CC2(C1)CC(c1nc3cc(Cl)ccc3s1)C2)c1ccnc(S(=O)(=O)CC2CC2)c1 (stereo not drawn) [Example 39, N-[6-(5-chloro-1,3-benzothiazol-2-yl)spiro[3.3]heptan-2-yl]-2-(cyclopropylmethylsulfonyl)pyridine-4-carboxamide]
IC50 (HBsAg; [2]): 0.79 µM
IC50 (HBeAg; [3]): 0.34 µM
CC50 at 144 h [1]: > 10 µM

O=C(NC1CC2(C1)CC(c1nc3cc(Cl)ccc3s1)C2)c1ccnc(C(F)(F)F)c1 (stereo not drawn) [Example 4, N-[6-(5-chloro-1,3-benzothiazol-2-yl)spiro[3.3]heptan-2-yl]-2-(trifluoromethyl)pyridine-4-carboxamide]
IC50 (HBsAg; [2]): 5.05 µM
IC50 (HBeAg; [3]): 4.34 µM
CC50 at 144 h [1]: > 10 µM

[H][C@]1(NC(=O)c2ccnc(S(C)(=O)=O)c2)C[C@]2(C1)C[C@]([H])(c1nc3cc(Cl)ccc3s1)C2 (single isomer, unassigned) [Example 54-b, (Ra)-N-[6-(5-chloro-1,3-benzothiazol-2-yl)spiro[3.3]heptan-2-yl]-2-methylsulfonyl-pyridine-4-carboxamide]
IC50 (HBsAg; read-out: HBsAg IC50, HBV-infected PHH, culture supernatant, compound refreshed two times with 72-hour interval, alphalisa): 0.28 µM
IC50 (HBeAg; read-out: HBeAg IC50, HBV-infected PHH, culture supernatant, compound refreshed two times with 72-hour interval, alphalisa): 0.23 µM
CC50 at 144 h [1]: 15.3 µM

O=C(NC1CC2(C1)CC(c1nc3cc(Cl)ccc3s1)C2)c1ccc(S(=O)(=O)C2CC2)o1 (stereo not drawn) [Example 13, N-[6-(5-chloro-1,3-benzothiazol-2-yl)spiro[3.3]heptan-2-yl]-5-cyclopropylsulfonyl-furan-2-carboxamide]
IC50 (HBsAg; [2]): 0.48 µM
IC50 (HBeAg; [3]): 0.36 µM
CC50 at 144 h [1]: 94.9 µM

O=C(NC1CC2(C1)CC(c1nc3cc(Cl)ccc3s1)C2)c1ccc(S(=O)(=O)NC2CC(F)(F)C2)o1 (stereo not drawn) [Example 23, N-[6-(5-chloro-1,3-benzothiazol-2-yl)spiro[3.3]heptan-2-yl]-5-[(3,3-difluorocyclobutyl)sulfamoyl]furan-2-carboxamide]
IC50 (HBsAg; [2]): 1.25 µM
IC50 (HBeAg; [3]): 0.85 µM
CC50 at 144 h [1]: 14.3 µM

CP(C)(=O)c1cccc(C(=O)NC2CC3(C2)CC(c2nc4cc(Cl)ccc4s2)C3)c1 (stereo not drawn) [Example 3, N-[6-(5-chloro-1,3-benzothiazol-2-yl)spiro[3.3]heptan-2-yl]-3-dimethylphosphoryl-benzamide]
IC50 (HBsAg; [2]): 6.37 µM
IC50 (HBeAg; [3]): 4.39 µM
CC50 at 144 h [1]: > 10 µM

O=C(NC1CC2(C1)CC(c1nc3cc(Cl)ccc3s1)C2)c1ccc(C(O)C(F)(F)F)o1 (stereo not drawn) [Example 18, N-[6-(5-chloro-1,3-benzothiazol-2-yl)spiro[3.3]heptan-2-yl]-5-(2,2,2-trifluoro-1-hydroxyethyl)furan-2-carboxamide]
IC50 (HBsAg; [2]): 5.52 µM
IC50 (HBeAg; [3]): 4.59 µM
CC50 at 144 h [1]: > 10 µM

CC(c1ccc(C(=O)NC2CC3(C2)CC(c2nc4cc(Cl)ccc4s2)C3)o1)S(C)(=O)=O (stereo not drawn) [Example 16, N-[6-(5-chloro-1,3-benzothiazol-2-yl)spiro[3.3]heptan-2-yl]-5-(1-methylsulfonylethyl)furan-2-carboxamide]
IC50 (HBsAg; [2]): 2.69 µM
IC50 (HBeAg; [3]): 1.92 µM
CC50 at 144 h [1]: 23.9 µM

O=C(NC1CC2(C1)CC(c1nc3cc(Cl)ccc3s1)C2)c1ccc(S(=O)(=O)N2CCC2)o1 (stereo not drawn) [Example 20, 5-(azetidin-1-ylsulfonyl)-N-[6-(5-chloro-1,3-benzothiazol-2-yl)spiro[3.3]heptan-2-yl]furan-2-carboxamide]
IC50 (HBsAg; [2]): 4.88 µM
IC50 (HBeAg; [3]): 4.06 µM
CC50 at 144 h [1]: > 10 µM

NC(=O)c1cc(C(=O)NC2CC3(C2)CC(c2nc4cc(Cl)ccc4s2)C3)ccn1 (stereo not drawn) [Example 11, N4-[6-(5-chloro-1,3-benzothiazol-2-yl)spiro[3.3]heptan-2-yl]pyridine-2,4-dicarboxamide]
IC50 (HBsAg; [2]): 4.06 µM
IC50 (HBeAg; [3]): 6.81 µM
CC50 at 144 h [1]: > 50 µM

CS(=O)(=O)c1cc(C(=O)NC2CC3(C2)CC(c2nc4cc(Cl)ccc4s2)C3)ccn1 (stereo not drawn) [Example 36, N-[6-(5-chloro-1,3-benzothiazol-2-yl)spiro[3.3]heptan-2-yl]-2-methylsulfonyl-pyridine-4-carboxamide]
IC50 (HBsAg; [2]): 1.08 µM
IC50 (HBeAg; [3]): 0.86 µM
CC50 at 144 h [1]: > 50 µM

O=C(CC1CCCS1(=O)=O)NC1CC2(C1)CC(c1nc3cc(Cl)ccc3s1)C2 (stereo not drawn) [Example 29, N-[6-(5-chloro-1,3-benzothiazol-2-yl)spiro[3.3]heptan-2-yl]-2-(1,1-dioxothiolan-2-yl)acetamide]
IC50 (HBsAg; [2]): 4.74 µM
IC50 (HBeAg; [3]): 3.59 µM
CC50 at 144 h [1]: > 10 µM

CC(C)Oc1cc(C(=O)NC2CC3(C2)CC(c2nc4cc(Cl)ccc4s2)C3)ccn1 (stereo not drawn) [Example 43, N-[6-(5-chloro-1,3-benzothiazol-2-yl)spiro[3.3]heptan-2-yl]-2-isopropoxy-pyridine-4-carboxamide]
IC50 (HBsAg; [2]): 3.23 µM
IC50 (HBeAg; [3]): 2.86 µM
CC50 at 144 h [1]: > 10 µM

O=C(NC1CC2(C1)CC(c1nc3cc(Cl)ccc3s1)C2)C1CS(=O)(=O)C1 (stereo not drawn) [Example 25, N-[6-(5-chloro-1,3-benzothiazol-2-yl)spiro[3.3]heptan-2-yl]-1,1-dioxo-thietane-3-carboxamide]
IC50 (HBsAg; [2]): 2.59 µM
IC50 (HBeAg; [3]): 2.07 µM
CC50 at 144 h [1]: > 10 µM

O=C(CN1CCCCS1(=O)=O)NC1CC2(C1)CC(c1nc3cc(Cl)ccc3s1)C2 (stereo not drawn) [Example 35, N-[6-(5-chloro-1,3-benzothiazol-2-yl)spiro[3.3]heptan-2-yl]-2-(1,1-dioxothiazinan-2-yl)acetamide]
IC50 (HBsAg; [2]): 3.18 µM
IC50 (HBeAg; [3]): 2.98 µM
CC50 at 144 h [1]: > 10 µM

[H][C@]1(NC(=O)c2cc(C(N)=O)ncn2)C[C@@]2(C1)C[C@]([H])(c1nc3cc(Cl)ccc3s1)C2 (single isomer, unassigned) [Example 56-a, (Sa)-N6-[6-(5-chloro-1,3-benzothiazol-2-yl)spiro[3.3]heptan-2-yl]pyrimidine-4,6-dicarboxamide]
IC50 (HBsAg; [2]): 3.29 µM
IC50 (HBeAg; [3]): 2.47 µM
CC50 at 144 h [1]: > 10 µM

CCN(C)c1cc(C(=O)NC2CC3(C2)CC(c2nc4cc(Cl)ccc4s2)C3)ccn1 (stereo not drawn) [Example 47, N-[6-(5-chloro-1,3-benzothiazol-2-yl)spiro[3.3]heptan-2-yl]-2-[ethyl(methyl)amino]pyridine-4-carboxamide]
IC50 (HBsAg; [2]): 5.85 µM
IC50 (HBeAg; [3]): 4.8 µM
CC50 at 144 h [1]: > 10 µM

O=C(NC1CC2(C1)CC(c1nc3cc(Cl)ccc3s1)C2)c1ccc(S(=O)(=O)NC2CC(C(F)(F)F)C2)o1 (stereo not drawn) [Example 24, N-[6-(5-chloro-1,3-benzothiazol-2-yl)spiro[3.3]heptan-2-yl]-5-[[3-(trifluoromethyl)cyclobutyl]sulfamoyl]furan-2-carboxamide]
IC50 (HBsAg; [2]): 1.4 µM
IC50 (HBeAg; [3]): 1.04 µM
CC50 at 144 h [1]: 19.7 µM

O=C1CCC(CC(=O)NC2CC3(C2)CC(c2nc4cc(Cl)ccc4s2)C3)N1 (stereo not drawn) [Example 33, N-[6-(5-chloro-1,3-benzothiazol-2-yl)spiro[3.3]heptan-2-yl]-2-(5-oxopyrrolidin-2-yl)acetamide]
IC50 (HBsAg; [2]): 4.08 µM
IC50 (HBeAg; [3]): 4.12 µM
CC50 at 144 h [1]: > 10 µM

CC(C)(c1ccc(C(=O)NC2CC3(C2)CC(c2nc4cc(Cl)ccc4s2)C3)o1)S(C)(=O)=O (stereo not drawn) [Example 17, N-[6-(5-chloro-1,3-benzothiazol-2-yl)spiro[3.3]heptan-2-yl]-5-(1-methyl-1-methylsulfonyl-ethyl)furan-2-carboxamide]
IC50 (HBsAg; [2]): 2.11 µM
IC50 (HBeAg; [3]): 1.6 µM
CC50 at 144 h [1]: 35.7 µM

Source: patent US20230331715A1, “SPIRO[3.3]HEPTANE DERIVATIVES FOR THE TREATMENT AND PROPHYLAXIS OF HEPATITIS B VIRUS INFECTION” (priority 2020, published 2023)
